Laboratory results: US11564969B2, “Immunorhelin compounds for intracellular infections” (ISR IMMUNE SYSTEM REGULATION HOLDING AB (PUBL), priority 2017, dated 2023)
Counter-ions that a name gives are not always drawn. Like-named read-outs stand apart in the source and are kept apart here. Square brackets hold non-standard residues; d marks the D form. Peptide text beside a SMILES is read from it. * marks the point of attachment. dHis(τ-Bn) = N[C@H](Cc1cn(Cc2ccccc2)cn1)C(=O)O; pGlu = O=C1CC[C@@H](C(=O)O)N1; tBu = CC(C)(C)*

Key:
[1] = Solubility analysis in PBS (Analysis Method B); format: physicochemical; details: pH 7.4
Experimental: The solubility of compounds of the invention was tested as described in the general methods. Solubility was then graded according to a rating between 1 to 5, where 1 is most soluble and 5 is least soluble.

GnRHR = biological target: T1, GnRHR (Homo sapiens, UniProt P30968)
T1 sequence (P30968 1-328): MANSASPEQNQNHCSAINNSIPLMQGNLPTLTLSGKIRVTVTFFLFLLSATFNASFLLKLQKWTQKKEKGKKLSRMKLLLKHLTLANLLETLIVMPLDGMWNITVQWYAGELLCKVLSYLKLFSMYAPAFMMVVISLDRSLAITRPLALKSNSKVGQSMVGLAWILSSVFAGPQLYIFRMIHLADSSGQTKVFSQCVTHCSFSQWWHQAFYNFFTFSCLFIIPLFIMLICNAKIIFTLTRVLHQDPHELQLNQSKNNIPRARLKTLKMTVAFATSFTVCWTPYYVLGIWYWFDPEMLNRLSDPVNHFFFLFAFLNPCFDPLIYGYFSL

Row | Solubility grading [1] | GNRHR Stimulation at 1 μM (GnRHR; 1000.0) [percentage] | SMILES | GNRHR Stimulation at 1 μM (GnRHR; 1 μM, calcium assay, CHO-K1 cells)
1 | 5 | 77 | CCNC(=O)[C@@H]1CCCN1C(=O)[C@H](Cc1ccc(O)cc1)NC(=O)[C@H](Cc1c[nH]c2ccccc12)NC(=O)[C@@H](Cc1cn(Cc2ccccc2)cn1)NC(=O)[C@H](Cc1c[nH]cn1)NC(=O)[C@H](CO)NC(=O)[C@H](Cc1c[nH]c2ccccc12)NC(=O)[C@H](Cc1c[nH]cn1)NC(=O)[C@@H]1CCC(=O)N1 [Compound 63, pGlu-His-Trp-Ser-His-D-Bhi-Trp-Tyr-Pro-NHEt] ([pGlu]HWSH[dHis(τ-Bn)]WYP-NHEt) | –
2 | 1 | – | CCNC(=O)[C@@H]1CCCN1C(=O)[C@H](CCCNC(=N)N)NC(=O)[C@H](CC(C)C)NC(=O)[C@@H](CC(C)C)NC(=O)[C@H](Cc1ccc(O)cc1)NC(=O)[C@H](CO)NC(=O)[C@H](Cc1c[nH]c2ccccc12)NC(=O)[C@H](Cc1c[nH]cn1)NC(=O)[C@@H]1CCC(=O)N1 [Leuprorelin TFA, leuprorelin, reference compound] | –
3 | 2 | – | CCNC(=O)[C@@H]1CCCN1C(=O)[C@H](CCCNC(=N)N)NC(=O)[C@H](CC(C)C)NC(=O)[C@@H](Cc1cn(Cc2ccccc2)cn1)NC(=O)[C@H](Cc1ccc(O)cc1)NC(=O)[C@H](CO)NC(=O)[C@H](Cc1c[nH]c2ccccc12)NC(=O)[C@H](Cc1cnc[nH]1)NC(=O)[C@@H]1CCC(=O)N1 [Histrelin TFA, histrelin, reference compound] | –
4 | 4 | – | CCNC(=O)[C@@H]1CCCN1C(=O)[C@H](CCCNC(=N)N)NC(=O)[C@H](CC(C)C)NC(=O)[C@@H](Cc1cn(Cc2ccccc2)cn1)NC(=O)[C@H](Cc1ccc(O)cc1)NC(=O)[C@H](CO)NC(=O)[C@H](Cc1c[nH]c2ccccc12)NC(=O)[C@H](Cc1cnc[nH]1)NC(=O)[C@@H]1CCC(=O)N1 [Histrelin acetate, histrelin, reference compound] | –
5 | 2 | – | CCNC(=O)[C@@H]1CCCN1C(=O)[C@H](CCCNC(=N)N)NC(=O)[C@H](CC(C)C)NC(=O)[C@@H](CC(C)C)NC(=O)[C@H](Cc1ccc(O)cc1)NC(=O)[C@H](CO)NC(=O)[C@H](Cc1c[nH]c2ccccc12)NC(=O)[C@H](Cc1c[nH]cn1)NC(=O)[C@@H]1CCC(=O)N1 [Leuprorelin acetate, leuprorelin, reference compound] | –

More lines, now with the values behind:

Row | SMILES | Solubility grading [1] | GNRHR Stimulation at 1 μM (GnRHR; 1000.0) [percentage] | GNRHR Stimulation at 1 μM (GnRHR; 1 μM, calcium assay, CHO-K1 cells)
6 | CCNC(=O)[C@@H]1CCCN1C(=O)[C@H](Cc1ccc(O)cc1)NC(=O)[C@H](Cc1c[nH]c2ccccc12)NC(=O)[C@@H](COC(C)(C)C)NC(=O)[C@H](Cc1ccc(O)cc1)NC(=O)[C@H](CO)NC(=O)[C@H](Cc1c[nH]c2ccccc12)NC(=O)[C@H](Cc1c[nH]cn1)NC(=O)[C@@H]1CCC(=O)N1 [Compound 12, pGlu-His-Trp-Ser-Tyr-D-Ser(tBu)-Trp-Tyr-Pro-NHEt] ([pGlu]HWSY[dS](tBu)WYP-NHEt) | 4 | 80 | –
7 | N=C(N)NCCC[C@H](NC(=O)[C@H](Cc1c[nH]c2ccccc12)NC(=O)[C@@H](Cc1c[nH]c2ccccc12)NC(=O)[C@H](Cc1c[nH]cn1)NC(=O)[C@H](CO)NC(=O)[C@H](Cc1c[nH]c2ccccc12)NC(=O)[C@H](Cc1c[nH]cn1)NC(=O)[C@@H]1CCC(=O)N1)C(=O)N1CCC[C@H]1C(=O)NCC(N)=O [Compound 20, pGlu-His-Trp-Ser-His-D-Trp-Trp-Arg-Pro-NHEt] | 3 | – | –
8 | CCNC(=O)[C@@H]1CCCN1C(=O)[C@H](Cc1ccc(O)cc1)NC(=O)[C@H](CC(C)C)NC(=O)[C@@H](Cc1cn(Cc2ccccc2)cn1)NC(=O)[C@H](Cc1ccc(O)cc1)NC(=O)[C@H](CO)NC(=O)[C@H](Cc1c[nH]c2ccccc12)NC(=O)[C@H](Cc1c[nH]cn1)NC(=O)[C@@H]1CCC(=O)N1 [Compound 59, pGlu-His-Trp-Ser-Tyr-D-Bhi-Leu-Tyr-Pro-NHEt] ([pGlu]HWSY[dHis(τ-Bn)]LYP-NHEt) | 4 | 85 | –
9 | CCNC(=O)[C@@H]1CCCN1C(=O)[C@H](CCCNC(=N)N)NC(=O)[C@H](Cc1c[nH]c2ccccc12)NC(=O)[C@@H](COC(C)(C)C)NC(=O)[C@H](Cc1c[nH]cn1)NC(=O)[C@H](CO)NC(=O)[C@H](Cc1c[nH]c2ccccc12)NC(=O)[C@H](Cc1c[nH]cn1)NC(=O)[C@@H]1CCC(=O)N1 [Compound 10, pGlu-His-Trp-Ser-His-D-Ser(tBu)-Trp-Arg-Pro-NHEt] ([pGlu]HWSH[dS](tBu)WRP-NHEt) | 1 | 81 | –
10 | CCNC(=O)[C@@H]1CCCN1C(=O)[C@H](CCCNC(=N)N)NC(=O)[C@H](Cc1c[nH]c2ccccc12)NC(=O)[C@@H](COC(C)(C)C)NC(=O)[C@H](Cc1ccc(O)cc1)NC(=O)[C@H](CO)NC(=O)[C@H](Cc1c[nH]c2ccccc12)NC(=O)[C@H](Cc1c[nH]cn1)NC(=O)[C@@H]1CCC(=O)N1 [Compound 8, pGlu-His-Trp-Ser-Tyr-D-Ser(tBu)-Trp-Arg-Pro-NHEt] ([pGlu]HWSY[dS](tBu)WRP-NHEt) | 2 | 86 | –
11 | CC(C)C[C@H](NC(=O)[C@@H](Cc1c[nH]c2ccccc12)NC(=O)[C@H](Cc1c[nH]cn1)NC(=O)[C@H](CO)NC(=O)[C@H](Cc1c[nH]c2ccccc12)NC(=O)[C@H](Cc1c[nH]cn1)NC(=O)[C@@H]1CCC(=O)N1)C(=O)N[C@@H](Cc1ccc(O)cc1)C(=O)N1CCC[C@H]1C(=O)NCC(N)=O [Compound 16, pGlu-His-Trp-Ser-His-D-Trp-Leu-Tyr-Pro-Gly-amide] ([pGlu]HWSH[dW]LYPG-NH2) | 2 | – | –
12 | CC(C)C[C@H](NC(=O)[C@@H](Cc1ccc2ccccc2c1)NC(=O)[C@H](Cc1ccc(O)cc1)NC(=O)[C@H](CO)NC(=O)[C@H](Cc1c[nH]c2ccccc12)NC(=O)[C@H](Cc1c[nH]cn1)NC(=O)[C@@H]1CCC(=O)N1)C(=O)N[C@@H](CCCNC(=N)N)C(=O)N1CCC[C@H]1C(=O)NCC(N)=O [Nafarelin, nafarelin, reference compound] | – | – | 100 (n = 2) percentage
13 | CC(C)C[C@H](NC(=O)[C@@H](Cc1c[nH]c2ccccc12)NC(=O)[C@H](Cc1ccc(O)cc1)NC(=O)[C@H](CO)NC(=O)[C@H](Cc1c[nH]c2ccccc12)NC(=O)[C@H](Cc1c[nH]cn1)NC(=O)[C@@H]1CCC(=O)N1)C(=O)N[C@@H](Cc1ccc(O)cc1)C(=O)N1CCC[C@H]1C(=O)NCC(N)=O [Compound 14, pGlu-His-Trp-Ser-Tyr-D-Trp-Leu-Tyr-Pro-Gly-amide] ([pGlu]HWSY[dW]LYPG-NH2) | 4 | – | –
14 | CC(C)C[C@H](NC(=O)[C@@H](Cc1ccc2ccccc2c1)NC(=O)[C@H](Cc1ccc(O)cc1)NC(=O)[C@H](CO)NC(=O)[C@H](Cc1c[nH]c2ccccc12)NC(=O)[C@H](Cc1c[nH]cn1)NC(=O)[C@@H]1CCC(=O)N1)C(=O)N[C@@H](CCCNC(=N)N)C(=O)N1CCC[C@H]1C(=O)NCC(N)=O [Naferelin acetate, nafarelin, reference compound] | 2 | – | –
15 | CC(C)C[C@H](NC(=O)[C@@H](Cc1ccc2ccccc2c1)NC(=O)[C@H](Cc1ccc(O)cc1)NC(=O)[C@H](CO)NC(=O)[C@H](Cc1c[nH]c2ccccc12)NC(=O)[C@H](Cc1c[nH]cn1)NC(=O)[C@@H]1CCC(=O)N1)C(=O)N[C@@H](CCCNC(=N)N)C(=O)N1CCC[C@H]1C(=O)NCC(N)=O [Naferelin TFA, nafarelin, reference compound] | 1 | – | –
